# Measured values published in patent EP0557876A1, “Use of xanthine derivatives for the treatment of muscle damage subsequent to complete interruption of blood circulation” (HOECHST AKTIENGESELLSCHAFT, priority 1992, dated 1993).
# Marks after values point to notes of the source that are not given here.
# Test system: Muskelfasern
# Experiment: Muscle fibre diameter after 3 h tourniquet interruption of blood circulation in a hind limb and subsequent reperfusion
# Type: in vivo, Cercopithecus pygerythrus
# Design: durchschnittliche Durchmesser Muskelfaser Typ1 / durchschnittliche Durchmesser Muskelfaser Typ2a: unit not given here
# Protocol: Zwei Gruppen von acht erwachsenen, männlichen südafrikanischen Meerkatzen (Cercopithecus pygerythrus) werden untersucht. Die Anasthäsie der Tiere erfolgt intramuskulär mit 15 mg/kg Ketamin (Warner Lambert) und wird intravenös mit Thiopenton Natrium (25 mg/kg, May und Baker) aufrecht erhalten. Eine hintere Extremität wird durch eine pneumatische Abschnürbinde und eine Esmarch Bandage blutleer gemacht. Die Unterbrechung der Blutzirklation wird drei Stunden aufrechterhalten, dann wird die Unterbrechung beendet und die Tiere können aus der Betäubung aufwachen. Die Entnahme der Muskelgewebeproben erfolgt unter Betäubung (15 mg/kg Ketamin).
# 20 mg/kg Verbindung 1 wird intravenös über 30 Minuten den Tieren appliziert bevor die Unterbrechung der Blutzirkulation erfolgt.
# Das entnommene Muskelgewebe wird sofort in Isopentan bei -183° C eingefroren. Die Präparation des Muskelgewebes erfolgt wie bei Dubowitz (Dubowitz et al. Muscle Biopsy A practical Approach, London, Bailliere Tindall, 1985, S. 82 - 128) beschrieben. Mikroskopische Schnitte werden mit Muskelfaser-ATPase für 30 Minuten bei pH 9,4 gefärbt, eingebettet und im Lichtmikroskop untersucht. Die Durchmesser von wenigstens 200 Muskelfasern werden mit einem computerisierten Video-Image-Analysator ausgewertet.
# Der durchschnittliche Durchmesser jedes Muskelfasertyps wird in Tabelle 1 beschrieben.
# [1] = Unterbrechung der Blutzirkulation, lower part of Tabelle 1 (12/18/24 h series), 20 mg/kg i.v.
# [2] = Unterbrechung der Blutzirkulation, upper part of Tabelle 1 (3/6 h series), 20 mg/kg i.v.
# [3] = Vor Unterbrechung der Blutzirkulation, lower part of Tabelle 1 (12/18/24 h series), 20 mg/kg i.v. over 30 min before interruption
# [4] = Vor Unterbrechung der Blutzirkulation, upper part of Tabelle 1 (3/6 h series), 20 mg/kg i.v. over 30 min before interruption
structure (smiles),measurement,setting,value
"CCOCn1cnc2c1c(=O)n(CCCCC(C)(C)O)c(=O)n2C [Verbindung 1, 7-Ethoxymethyl-1-(5-hydroxy-5-methylhexyl)-3-methylxanthin]",durchschnittliche Durchmesser Muskelfaser Typ1,"Nach 3 Stunden, 20 mg/kg i.v.","39,89*"
same,durchschnittliche Durchmesser Muskelfaser Typ2a,"Nach 3 Stunden, 20 mg/kg i.v.","48,55*"
same,durchschnittliche Durchmesser Muskelfaser Typ1,"Nach 6 Stunden, 20 mg/kg i.v.","43,42*"
same,durchschnittliche Durchmesser Muskelfaser Typ2a,"Nach 6 Stunden, 20 mg/kg i.v.","53,37*"
same,durchschnittliche Durchmesser Muskelfaser Typ1,"Nach 12 Stunden, 20 mg/kg i.v.","35,79"
same,durchschnittliche Durchmesser Muskelfaser Typ2a,"Nach 12 Stunden, 20 mg/kg i.v.","42,28*"
same,durchschnittliche Durchmesser Muskelfaser Typ1,"Nach 18 Stunden, 20 mg/kg i.v.","34,68"
same,durchschnittliche Durchmesser Muskelfaser Typ2a,"Nach 18 Stunden, 20 mg/kg i.v.","41,31"
same,durchschnittliche Durchmesser Muskelfaser Typ1,"Nach 24 Stunden, 20 mg/kg i.v.","33,00"
same,durchschnittliche Durchmesser Muskelfaser Typ2a,"Nach 24 Stunden, 20 mg/kg i.v.","40,24"
same,durchschnittliche Durchmesser Muskelfaser Typ1,[1],"33,21"
same,durchschnittliche Durchmesser Muskelfaser Typ2a,[1],"38,69"
same,durchschnittliche Durchmesser Muskelfaser Typ1,[2],"36,28"
same,durchschnittliche Durchmesser Muskelfaser Typ2a,[2],"44,75"
same,durchschnittliche Durchmesser Muskelfaser Typ1,[3],"36,50"
same,durchschnittliche Durchmesser Muskelfaser Typ2a,[3],"45,09"
same,durchschnittliche Durchmesser Muskelfaser Typ1,[4],"36,50"
same,durchschnittliche Durchmesser Muskelfaser Typ2a,[4],"45,09"
same,Schwellung der Muskelfasern vom Typ 1 und 2a,"nach 18 - 24 Stunden Wiederdurchblutung, 20 mg/kg i.v.",signifikant verringerte Schwellung
